# Patent US12331051B2 (priority 2021, dated 2025)
# “Also recorded” adds a separate entry of the source. Where two headings read alike, the source gives them in different places.
# Tests used:
# D2 dopamine receptor = D2 dopamine receptor (Homo sapiens, UniProt P14416); assay: BRET-based G protein dissociation assay; type: cell-based
# D4 dopamine receptor = target: T1, D4 dopamine receptor (Homo sapiens, UniProt P21917); assay: BRET-based G protein dissociation assay; type: cell-based
# T1 sequence (P21917 1-419): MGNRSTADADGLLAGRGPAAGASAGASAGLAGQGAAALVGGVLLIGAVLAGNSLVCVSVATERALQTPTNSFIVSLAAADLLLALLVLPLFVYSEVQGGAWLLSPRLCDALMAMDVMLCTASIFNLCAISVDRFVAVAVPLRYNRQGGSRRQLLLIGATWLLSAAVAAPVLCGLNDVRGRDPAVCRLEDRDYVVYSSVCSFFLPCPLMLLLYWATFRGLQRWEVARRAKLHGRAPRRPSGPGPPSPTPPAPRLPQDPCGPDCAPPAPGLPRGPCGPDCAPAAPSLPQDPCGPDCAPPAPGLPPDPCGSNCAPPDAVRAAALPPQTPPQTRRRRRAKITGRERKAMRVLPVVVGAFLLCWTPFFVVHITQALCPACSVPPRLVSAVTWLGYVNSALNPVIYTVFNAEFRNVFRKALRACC
# D5 dopamine receptor = D5 dopamine receptor (Homo sapiens, UniProt P21918); assay: BRET-based G protein dissociation assay; type: cell-based
# [1] = target: T2, ADRa1A (α1A adrenergic receptor) (Homo sapiens, UniProt P35348); assay: BRET-based G protein dissociation assay; type: cell-based
# T2 sequence (P35348 1-466): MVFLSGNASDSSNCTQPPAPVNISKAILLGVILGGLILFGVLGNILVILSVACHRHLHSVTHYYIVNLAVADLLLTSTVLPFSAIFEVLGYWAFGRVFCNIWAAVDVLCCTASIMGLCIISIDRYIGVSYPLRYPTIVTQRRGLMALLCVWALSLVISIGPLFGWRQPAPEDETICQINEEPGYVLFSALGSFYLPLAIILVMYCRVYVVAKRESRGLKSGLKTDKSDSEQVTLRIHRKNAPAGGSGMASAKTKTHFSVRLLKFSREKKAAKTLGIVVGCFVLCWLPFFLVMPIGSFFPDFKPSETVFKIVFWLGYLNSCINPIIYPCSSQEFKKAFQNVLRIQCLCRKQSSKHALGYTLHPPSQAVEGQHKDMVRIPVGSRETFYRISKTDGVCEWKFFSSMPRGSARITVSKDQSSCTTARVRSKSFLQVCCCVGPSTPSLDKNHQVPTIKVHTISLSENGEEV
# [2] = target: H2 histaminergic receptor (Homo sapiens, UniProt P25021); assay: BRET-based G protein dissociation assay; type: cell-based
# [3] = target: CHRM2 (M2 muscarinic receptor) (Homo sapiens, UniProt P08172); assay: BRET-based G protein dissociation assay; type: cell-based
# [4] = target: T3, CHRM4 (M4 muscarinic receptor) (Homo sapiens, UniProt P08173); assay: BRET-based G protein dissociation assay; type: cell-based
# T3 sequence (P08173 1-479): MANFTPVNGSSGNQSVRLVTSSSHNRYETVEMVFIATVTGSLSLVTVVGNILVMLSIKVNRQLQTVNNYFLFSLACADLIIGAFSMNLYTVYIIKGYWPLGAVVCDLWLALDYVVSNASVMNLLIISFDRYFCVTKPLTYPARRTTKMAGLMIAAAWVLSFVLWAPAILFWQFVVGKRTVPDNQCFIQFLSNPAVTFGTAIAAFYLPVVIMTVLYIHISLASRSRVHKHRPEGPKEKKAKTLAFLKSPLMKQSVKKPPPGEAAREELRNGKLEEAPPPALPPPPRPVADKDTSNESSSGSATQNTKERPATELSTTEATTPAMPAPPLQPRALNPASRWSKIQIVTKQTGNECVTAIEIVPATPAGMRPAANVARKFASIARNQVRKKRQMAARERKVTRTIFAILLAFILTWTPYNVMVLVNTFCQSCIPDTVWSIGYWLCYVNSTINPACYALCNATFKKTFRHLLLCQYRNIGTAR
# male C57BL/6J mice = assay: Head-twitch response (HTR) mouse model; type: in vivo
# Procedure: The HTR mouse model is widely used as a proxy behavioral assay for hallucinogenic activity in humans [Halbertstad et al., Neuropharmacology, 2020, V167: 107933; Halberstadt et. al., Psychopharmacology (Berl). 2013, 227(4):727-39].
# The magnet implants mounting and magnetometer assessments were conducted as described previously (Halberstadt et al., Psychopharmacology (Berl). 2013 227(4): 727-739). Data are represented as group means±standard deviation for the entire 60 minutes test session (FIG. 10A) and individual data points per 2 minutes blocks (FIG. 10B). Asterisks indicate statistical significances compared to the control (0 mg/kg).
# 5-HT2B receptor = target: T4, 5-HT2B receptor (Homo sapiens, UniProt P41595); assay: 5-HT2B Gq dissociation, β-arrestin2 recruitment and Gq-mediated calcium flux in HEK293T cells; type: cell-based
# T4 construct: expressed in transfected cells; host or cells: HEK293T; Flp-In 293 T-Rex (calcium flux)
# Procedure: The activity of the “E559 polymorph” at the 5-HT2B receptor was further assessed by 5-HT2B-mediated Gq dissociation (FIG. 14A), 5-HT2B-mediated 0-arrestin2 recruitment (FIG. 14B) and 5-HT2B Gq-mediated calcium flux assessments (FIG. 14C) using bioluminescence resonance energy transfer (BRET) assay in HEK293T cells FIG. 14A to C, 5-HT refers to serotonin). […] In 5-HT2B antagonist assays, the “E559 polymorph” antagonism was measured by its ability to block 5-HT2B receptor activation by 5-HT.
# 5-HT2A receptor [5] = target: T5, 5-HT2A receptor (Homo sapiens, UniProt P28223)
# 5-HT2A receptor [6] = target: T5, 5-HT2A receptor; assay: 5-HT2A receptor internalization, NanoBit HiBit-fused 5-HT2A in HEK293T cells; type: cell-based; design: expressed in transfected cells; host or cells: HEK293T
# Procedure: To assess the ability of the “E559 polymorph” to induce β-arrestin-mediated 5-HT2A receptor internalization in vitro, the loss of surface expression of 5-HT2A receptor was measured using a NanoBit N-terminal HiBit-fused 5-HT2A construct cloned in HEK293T cells (1:15 ratio 5-HT2A: β-arrestin2). In brief, cells were treated with serial dilution of test compounds for 1 hour or a specified time point.
# [7] = percentage of the reference ligand-induced maximal response, read-out: Emax
# T5 sequence (P28223 whole entry, the tested form may be a part): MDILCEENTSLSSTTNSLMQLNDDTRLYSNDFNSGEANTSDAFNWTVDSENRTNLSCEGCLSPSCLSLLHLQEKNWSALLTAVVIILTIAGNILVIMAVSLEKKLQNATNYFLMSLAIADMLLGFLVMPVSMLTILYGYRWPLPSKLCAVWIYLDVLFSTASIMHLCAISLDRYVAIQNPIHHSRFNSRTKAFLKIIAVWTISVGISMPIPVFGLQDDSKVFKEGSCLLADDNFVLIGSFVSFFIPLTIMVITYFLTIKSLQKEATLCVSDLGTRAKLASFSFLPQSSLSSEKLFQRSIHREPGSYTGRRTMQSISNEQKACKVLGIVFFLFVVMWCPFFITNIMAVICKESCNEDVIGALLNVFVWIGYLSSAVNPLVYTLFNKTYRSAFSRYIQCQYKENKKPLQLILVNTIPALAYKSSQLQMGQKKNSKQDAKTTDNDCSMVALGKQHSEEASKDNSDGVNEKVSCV
# T4 sequence (P41595 whole entry): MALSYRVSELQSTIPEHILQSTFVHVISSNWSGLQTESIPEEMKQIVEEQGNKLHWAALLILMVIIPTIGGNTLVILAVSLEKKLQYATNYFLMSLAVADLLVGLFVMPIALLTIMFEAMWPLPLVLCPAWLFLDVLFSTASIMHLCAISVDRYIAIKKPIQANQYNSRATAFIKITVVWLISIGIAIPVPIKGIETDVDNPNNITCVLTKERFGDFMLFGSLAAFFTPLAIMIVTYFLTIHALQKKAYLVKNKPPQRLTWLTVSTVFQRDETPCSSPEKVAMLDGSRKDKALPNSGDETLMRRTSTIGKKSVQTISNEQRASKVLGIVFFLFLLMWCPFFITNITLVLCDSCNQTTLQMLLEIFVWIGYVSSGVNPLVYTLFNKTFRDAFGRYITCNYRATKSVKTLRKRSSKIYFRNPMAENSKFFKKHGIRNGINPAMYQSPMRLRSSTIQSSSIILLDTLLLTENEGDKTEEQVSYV
# Sequence of D2 dopamine receptor (P14416 whole entry): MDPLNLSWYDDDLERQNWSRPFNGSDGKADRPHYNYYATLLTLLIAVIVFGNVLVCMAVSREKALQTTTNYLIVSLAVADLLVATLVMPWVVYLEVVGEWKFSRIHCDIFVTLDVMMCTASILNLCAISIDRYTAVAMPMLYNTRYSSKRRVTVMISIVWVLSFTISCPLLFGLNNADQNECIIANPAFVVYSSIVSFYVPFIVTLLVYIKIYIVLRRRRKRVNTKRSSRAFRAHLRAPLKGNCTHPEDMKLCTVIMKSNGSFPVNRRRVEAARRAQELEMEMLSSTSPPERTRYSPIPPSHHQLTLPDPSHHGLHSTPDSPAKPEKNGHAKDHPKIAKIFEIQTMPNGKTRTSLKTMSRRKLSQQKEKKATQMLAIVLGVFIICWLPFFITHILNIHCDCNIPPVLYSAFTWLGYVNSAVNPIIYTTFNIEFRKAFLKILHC
# Sequence of D5 dopamine receptor (P21918 whole entry): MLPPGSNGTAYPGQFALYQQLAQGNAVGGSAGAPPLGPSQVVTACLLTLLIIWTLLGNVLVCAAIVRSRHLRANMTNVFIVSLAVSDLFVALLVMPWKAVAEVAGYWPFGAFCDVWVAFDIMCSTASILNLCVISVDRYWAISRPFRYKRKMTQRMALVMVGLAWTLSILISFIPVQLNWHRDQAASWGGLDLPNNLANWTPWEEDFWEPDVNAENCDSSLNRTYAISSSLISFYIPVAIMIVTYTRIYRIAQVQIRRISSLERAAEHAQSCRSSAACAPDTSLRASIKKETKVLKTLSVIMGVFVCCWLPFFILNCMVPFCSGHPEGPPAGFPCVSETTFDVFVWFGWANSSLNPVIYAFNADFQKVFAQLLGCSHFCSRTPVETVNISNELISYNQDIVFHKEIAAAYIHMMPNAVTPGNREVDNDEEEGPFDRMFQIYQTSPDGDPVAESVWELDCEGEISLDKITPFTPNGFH
# Sequence of H2 histaminergic receptor (P25021 whole entry): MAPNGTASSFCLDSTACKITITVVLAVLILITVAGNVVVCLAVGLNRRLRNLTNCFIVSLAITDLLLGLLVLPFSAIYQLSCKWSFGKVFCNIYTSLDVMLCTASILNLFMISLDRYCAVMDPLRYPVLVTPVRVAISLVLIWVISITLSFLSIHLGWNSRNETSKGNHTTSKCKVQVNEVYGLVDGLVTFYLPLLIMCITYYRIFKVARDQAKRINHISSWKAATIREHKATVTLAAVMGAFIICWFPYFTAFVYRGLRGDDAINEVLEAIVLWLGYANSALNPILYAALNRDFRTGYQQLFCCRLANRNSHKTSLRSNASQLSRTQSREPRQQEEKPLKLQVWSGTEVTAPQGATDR
# Sequence of CHRM2 (M2 muscarinic receptor) (P08172 whole entry): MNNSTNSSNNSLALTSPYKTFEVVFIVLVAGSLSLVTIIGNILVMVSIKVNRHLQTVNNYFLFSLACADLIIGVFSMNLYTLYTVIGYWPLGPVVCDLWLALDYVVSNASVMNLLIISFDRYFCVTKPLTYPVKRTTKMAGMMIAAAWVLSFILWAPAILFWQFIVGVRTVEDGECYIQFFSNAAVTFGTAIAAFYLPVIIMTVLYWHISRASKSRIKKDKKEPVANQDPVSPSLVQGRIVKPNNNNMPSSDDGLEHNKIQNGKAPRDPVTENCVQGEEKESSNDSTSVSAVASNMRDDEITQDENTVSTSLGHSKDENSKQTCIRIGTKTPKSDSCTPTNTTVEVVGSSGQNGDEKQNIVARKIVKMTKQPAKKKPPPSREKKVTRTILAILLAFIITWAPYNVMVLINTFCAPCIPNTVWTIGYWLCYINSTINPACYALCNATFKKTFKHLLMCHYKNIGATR
structure (smiles),measurement,setting,value
"CCN(CC)C(=O)[C@@H]1C=C2c3cccc4[nH]cc(c34)C[C@H]2N(C)C1 [LSD, lysergic acid diethylamide, reference compound]",EC50,D2 dopamine receptor,2.17 nM
same,Emax,D2 dopamine receptor,86%
same,EC50,"D4 dopamine receptor; agonist mode, read-out: EC50",4.03 nM
same,Emax,D4 dopamine receptor; [7],91.9%
same,EC50,"D5 dopamine receptor; agonist mode, read-out: EC50",166 nM
same,Emax,D5 dopamine receptor; [7],70.7%
same,EC50,"[1]; agonist mode, read-out: EC50",38.5 nM
same,Emax,[1]; percentage of the reference ligand-induced maximal response,24.8%
same,EC50,"[2]; agonist mode, read-out: EC50",> 10000 nM
same,Emax,[2]; [7],21.2%
same,EC50,"[3]; agonist mode, read-out: EC50",> 10000 nM
same,EC50,"[4]; agonist mode, read-out: EC50",454 nM
same,head-twitch response (HTR),"male C57BL/6J mice; mouse, in vivo",elicited a strong HTR
same,agonism at 5-HT2B,5-HT2B receptor,shows potent agonism of the 5-HT2B receptor; also recorded: an agonist of 5-HT2B
same,functional (agonist) activity at 5-HT2A,5-HT2A receptor [5],potent almost full 5-HT2A agonist
same,internalization of the 5-HT2A receptor (loss of surface expression),5-HT2A receptor [6],potent internalization
"CCN(CC)C(=O)[C@@H]1C=C2c3cccc4[nH]c(Br)c(c34)C[C@H]2N(C)C1 [E559, (5R, 8R)-2-Bromo-9,10-didehydro-N,N-diethyl-6-methylergoline-8-carboxamide hemi-D-tartrate]",EC50,D2 dopamine receptor,0.35 nM
same,Emax,D2 dopamine receptor,77.4%
same,EC50,D4 dopamine receptor,1.22 nM
same,Emax,D4 dopamine receptor,67.3%
same,EC50,D5 dopamine receptor,3.75 nM
same,Emax,D5 dopamine receptor,15.6%
same,Kb,D5 dopamine receptor,25.1 nM
same,EC50,[1],25 nM
same,Kb,[1],56.9 nM
same,EC50,[2],296 nM
same,Emax,[2],28.8%
same,Kb,[2],5190 nM
same,EC50,[3],214 nM
same,EC50,[4],0.04 nM
same,Emax,[4],15.6%
same,head-twitch response (HTR),"male C57BL/6J mice; IP, E559 polymorph 0.1-10 mg/kg, LSD 0.1 mg/kg, 60 minutes",negative in HTR at all doses tested; also recorded: did not induce HTR above baseline at any tested dose
same,antagonism of 5-HT-mediated activation of 5-HT2B,"5-HT2B receptor; Gq dissociation, β-arrestin2 recruitment, calcium flux",antagonism was observed in blocking 5-HT-mediated activation of the 5-HT2B receptor in all three assays
same,agonism at 5-HT2B,"5-HT2B receptor; Gq dissociation, β-arrestin2 recruitment, calcium flux, listed as E559 polymorph",does not show the agonism seen with LSD; also recorded: inactive as an agonist at the 5-HT2B receptor
same,functional (agonist) activity at 5-HT2A,"5-HT2A receptor [5]; FIG. 15, FIG. 16A/B",potent partial agonist of 5-HT2A
same,antagonism of 5-HT activation of 5-HT2A,"5-HT2A receptor [5]; Gq dissociation and β-arrestin2 recruitment, FIG. 17A/B",antagonizes the 5-HT activation
same,internalization of the 5-HT2A receptor (loss of surface expression),5-HT2A receptor [6]; single 1 hour treatment,only exhibits weak internalization of the 5-HT2A receptor
